# From patent US11653689B2, “Probiotic Bifidobacterium breve strain and compositions comprising said strain” (Chr. Hansen A/S, priority 2018, dated 2023)
# Columns and labels:
# upper GI bleeding = settings: in vivo; cited from earlier work
# [1] = Co-incubation of DSM 32356 with acetylsalicylic acid, metabolite analysis
# Experimental: The overall aim with this experiment was to explore if Bifidobacterium breve DSM 32356 influenced the degradation of aspirin in vitro.
# To cover a wide concentration range of acetylsalicylic acid the following concentrations were used: 20, 10, 5, 2.5, 1.25, 0.625, 0.3125 and 0 mM of acetylsalicylic acid.
# The next day the grown culture was reinoculated in fresh MRS with 0.05% CyHCl (100 μL bacteria suspension in 10 mL MRS with 0.05% CyHCl). Six dilution rows were generated by transferring 1 mL of mixed inoculated culture to 10 mL MRS with 0.05% CyHCl. This was repeated 5 times. The bifidobacteria were cultured anaerobically overnight at 37° C. On the day of incubation with acetylsalicyl acid bacterial growth was evaluated by measuring optical density at 600 nm (OD600 nm) and cultures representing late exponential/early stationary phase were selected. […]
# Nine mL of each acetylsalicylic acid solution (22.2, 11.1, 5.6, 2.8, 1.39, 0.69 and 0.35 mM) and the control condition (0 mM) were added to different sterile tubes in duplicate. […] After incubation, pH was measured in each vial and the solutions were sterile filtered and frozen at −80° C. until metabolite analysis. […]
# cyclooxygenase (COX) = experiment: Serum prostaglandin E2 and thromboxane B2 by LC-MS/MS in trial subjects; format: in vivo, human; settings: fasting serum, visit 2 to 7, 300 mg aspirin daily
# Experimental: As exploratory endpoints, post-hoc intervention effects on prostaglandin E2 (PGE2) and thromboxane B2 (TBX2) in serum samples downstream of cyclooxygenase (COX) were studied.
# After unblinding, a post-hoc lab analysis was performed on 2 biolipids PGE2 and TXB2 downstream from the COX enzyme in fasting serum samples obtained during visit 2 to visit 7. […] J. Chromatogr. […] Ambiotis were kept blinded for intervention during analyses and analyses were performed in single measurements.
# Caco-2 cell layer = settings: cited from earlier work
smiles,measurement,setting,value
"CC(=O)Oc1ccccc1C(=O)O [acetylsalicylic acid (aspirin), acetylsalicylic acid]",increased risk of upper GI bleeding,upper GI bleeding,2- to 4 fold
same,conversion of acetylsalicylic acid to salicylic acid,"[1]; 24 hours, 37° C., with DSM 32356 or acid-adjusted to pH 4.5, MRS",most of the acetylsalicylic acid was converted to salicylic acid
same,growth of DSM 32356,[1]; increasing concentrations of aspirin,inhibited bacterial growth
same,serum PGE2 concentrations,cyclooxygenase (COX),robust inhibition
same,serum TXB2 concentrations,cyclooxygenase (COX),robust inhibition
same,ZO-1 expression,Caco-2 cell layer,decreased
same,flux of fluorescein isothiocyanate-conjugated dextran,Caco-2 cell layer,increases flux
same,transepithelial electrical resistance (TEER),Caco-2 cell layer,decreased
